# Counter-ions that a name gives are not always drawn.
# Test system: HIV-1 (HIVIIIB) replication in MT2 cell line
# Assay: HIV-1 replication in MT2 cell line with and without 30% human serum (viral RT activity in supernatant)
# Type: cell-based
# Conditions: Human immunodeficiency virus 1, MT2 cells, with 30% human serum, average IC50 if tested more than once, read-out: MT2 (HIVIIIB) with HS 30% IC50 range
# Outline: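 MT2 cells infected with HIV-1 IIIB at MOI 0.5 for 3 h, washed, seeded at 0.5×10^6/ml in RPMI/10% FBS with serially diluted compound, with or without 30% human serum; medium and compound refreshed on day 3. RT activity in supernatant at day 5; IC50 and IC90 derived.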
row,Compound,IC50 [nM]
1,"CC(C)C1=C2C3CCC4[C@@]5(C)CC[C@H](OC(=O)CC(C)(C)C(=O)O)C(C)(C)C5CC[C@@]4(C)[C@]3(C)CC[C@@]2(NC(=O)O[C@@H]2CCN(C)C2)CC1=O (stereo partly drawn) [20-13, 3β-O-(3′,3′-Dimethylsuccinyl)-17β-((R)-1-methylpyrrolidine-3-oxycarbonylamino)-21-oxolup-18-ene]",< 199
2,"CC(C)C(=O)N[C@@]12CC[C@]3(C)C(CCC4[C@@]5(C)CC[C@H](OC(=O)CC(C)(C)C(=O)O)C(C)(C)C5CC[C@]43C)C1=C(C(C)C)C(=O)C2 (stereo partly drawn) [19-31, 3β-O-(3′,3′-Dimethylsuccinyl)-17β-isopropylamido-21-oxolup-18-ene]",< 199
3,CC(C)C1=C2C3CCC4[C@@]5(C)CC[C@H](OC(=O)CC(C)(C)C(=O)O)C(C)(C)C5CC[C@@]4(C)[C@]3(C)CC[C@@]2(NC(=O)[C@H]2CCCN2C(=O)OC(C)(C)C)CC1=O (stereo partly drawn) [19-58],< 199
4,"Cc1nnc(NC(=O)N[C@@]23CC[C@]4(C)C(CCC5[C@@]6(C)CC[C@H](OC(=O)CC(C)(C)C(=O)O)C(C)(C)C6CC[C@]54C)C2=C(C(C)C)C(=O)C3)o1 (stereo partly drawn) [17-19, 3β-O-(3′,3′-Dimethylsuccinyl)-17β-(N′-5-methyl-[1,3,4]oxadiazol-2-yl-ureido)-21-oxolup-18-ene]",< 199
5,"CC(C)C1=C2[C@H]3CC[C@@H]4[C@@]5(C)CC[C@H](OC(=O)CC(C)(C)C(=O)O)C(C)(C)[C@@H]5CC[C@@]4(C)[C@]3(C)CC[C@@]2(NC(=O)c2ccccn2)CC1=O [19-15, 3β-O-(3′,3′-Dimethylsuccinyl)-17β-(Pyridin-2-yl)amido-21-oxolup-18-ene hydrochloride]",< 199
6,"CC(C)C1=C2[C@H]3CC[C@@H]4[C@@]5(C)CC[C@H](OC(=O)CC(C)(C)C(=O)O)C(C)(C)[C@@H]5CC[C@@]4(C)[C@]3(C)CC[C@@]2(NC(=O)c2ccccc2F)CC1=O [19-11, 3β-O-(3′,3′-Dimethylsuccinyl)-17β-(2-fluorobenzamido)-21-oxolup-18-ene]",< 199
7,"CC(C)C1=C2C3CCC4[C@@]5(C)CC[C@H](OC(=O)CC(C)(C)C(=O)O)C(C)(C)C5CC[C@@]4(C)[C@]3(C)CC[C@@]2(NC(=O)N[C@H](C)c2ccccc2)CC1=O (stereo partly drawn) [17-62, 3β-O-(3′,3′-Dimethylsuccinyl)-17β-[N′-((R)-1-phenyl-ethyl)-ureido]-21-oxolup-18-ene]",< 199
8,"CC(C)C1=C2[C@H]3CC[C@@H]4[C@@]5(C)CC[C@H](OC(=O)CC(C)(C)C(=O)O)C(C)(C)[C@@H]5CC[C@@]4(C)[C@]3(C)CC[C@@]2(NC(=O)c2cnccn2)CC1=O [19-16, 3β-O-(3′,3′-Dimethylsuccinyl)-17β-(pyrazin-2-yl)amido-21-oxolup-18-ene]",< 199
9,"CC(C)C1=C2[C@H]3CC[C@@H]4[C@@]5(C)CC[C@H](OC(=O)CC(C)(C)C(=O)O)C(C)(C)[C@@H]5CC[C@@]4(C)[C@]3(C)CC[C@@]2(NC(=O)OC(C)(C)C)CC1=O [14-1, 3β-O-(3′,3′-Dimethylsuccinyl)-17β-tert-butyloxycarbonylamino-21-oxolup-18-ene]",< 199
10,"CC(C)C1=C2C3CCC4[C@@]5(C)CC[C@H](OC(=O)CC(C)(C)C(=O)O)C(C)(C)C5CC[C@@]4(C)[C@]3(C)CC[C@@]2(NC(=O)N2CC[C@H](N)C2)CC1=O (stereo partly drawn) [17-43, 3β-O-(3′,3′-Dimethylsuccinyl)-17β-[((S)-3-amino-pyrrolidine-1-carbonyl)-amino]-21-oxolup-18-ene]",< 199
11,"CC(C)C1=C2[C@H]3CC[C@@H]4[C@@]5(C)CC[C@H](OC(=O)CC(C)(C)C(=O)O)C(C)(C)[C@@H]5CC[C@@]4(C)[C@]3(C)CC[C@@]2(NC(=O)c2cccs2)CC1=O [19-20, 3β-O-(3′,3′-Dimethylsuccinyl)-17β-(2-thiophene)amido-21-oxolup-18-ene]",< 199
12,"CC(C)C1=C2[C@H]3CC[C@@H]4[C@@]5(C)CC[C@H](OC(=O)CC(C)(C)C(=O)O)C(C)(C)[C@@H]5CC[C@@]4(C)[C@]3(C)CC[C@@]2(NC(=O)c2ccncc2)CC1=O [19-14, 3β-O-(3′,3′-Dimethylsuccinyl)-17β-(pyridin4-yl)amido-21-oxolup-18-ene]",< 199
13,"CC(C)C1=C2[C@H]3CC[C@@H]4[C@@]5(C)CC[C@H](OC(=O)CC(C)(C)C(=O)O)C(C)(C)[C@@H]5CC[C@@]4(C)[C@]3(C)CC[C@@]2(NC(=O)CCN2CCCC2)CC1=O [19-37, 3β-O-(3′,3′-Dimethylsuccinyl)-17β-(3-pyrrolidin-1-yl-propionamido)-21-oxolup-18-ene]",< 199
14,"CC(C)C1=C2[C@H]3CC[C@@H]4[C@@]5(C)CC[C@H](OC(=O)CC(C)(C)C(=O)O)C(C)(C)[C@@H]5CC[C@@]4(C)[C@]3(C)CC[C@@]2(NC(=O)c2cccnc2O)CC1=O [19-51, 3β-O-(3′,3′-Dimethylsuccinyl)-17β-(2-hydroxypyridin-3-yl)amido-21-oxolup-18-ene]",< 199
15,"CC(C)C1=C2C3CCC4[C@@]5(C)CC[C@H](OC(=O)CC(C)(C)C(=O)O)C(C)(C)C5CC[C@@]4(C)[C@]3(C)CC[C@@]2(NC(=O)N(C)C)CC1=O (stereo partly drawn) [17-48, 3β-O-(3′,3′-Dimethylsuccinyl)-17β-[N′,N′-dimethyl-ureido]-21-oxolup-18-ene]",< 199
16,"CC(C)C1=C2C3CCC4[C@@]5(C)CC[C@H](OC(=O)[C@H]6CCC[C@@H](C(=O)O)C6)C(C)(C)C5CC[C@@]4(C)[C@]3(C)CC[C@@]2(N)CC1=O (stereo partly drawn) [15-2, 3β-O-(cis-Cyclohexane-3′-carboxylic acid-1′-carboxyl)-17β-amino-21-oxolup-18-ene]",> 1000
17,"CC(C)C1=C2[C@H]3CC[C@@H]4[C@@]5(C)CC[C@H](OC(=O)CC(C)(C)C(=O)O)C(C)(C)[C@@H]5CC[C@@]4(C)[C@]3(C)CC[C@@]2(NC(=O)Cc2ccc(F)cc2)CC1=O [19-9, 3β-O-(3′,3′-Dimethylsuccinyl)-17β-(4-fluorobenzyl)amido-21-oxolup-18-ene]",< 199
18,"CC(C)C1=C2[C@H]3CC[C@@H]4[C@@]5(C)CC[C@H](OC(=O)CC(C)(C)C(=O)O)C(C)(C)[C@@H]5CC[C@@]4(C)[C@]3(C)CC[C@@]2(NC(=O)c2cn(C)cn2)CC1=O [19-19, 3β-O-(3′,3′-Dimethylsuccinyl)-17β-(1-methyl-1H-imidazole-4-amido)-21-oxolup-18-ene]",< 199
19,"CC(C)C1=C2[C@H]3CC[C@@H]4[C@@]5(C)CC[C@H](OC(=O)CC(C)(C)C(=O)O)C(C)(C)[C@@H]5CC[C@@]4(C)[C@]3(C)CC[C@@]2(NS(C)(=O)=O)CC1=O [18-1, 3β-O-(3′,3′-Dimethylsuccinyl)-17β-methylsulfonylamino-21-oxolup-18-ene]",< 199
20,"CC(C)C1=C2C3CCC4[C@@]5(C)CC[C@H](OC(=O)CC(C)(C)C(=O)O)C(C)(C)C5CC[C@@]4(C)[C@]3(C)CC[C@@]2(NC(=O)OCC2CCCCC2)CC1=O (stereo partly drawn) [20-7, 3β-O-(3′,3′-Dimethylsuccinyl)-17β-cyclohexylmethoxycarbonylamino-21-oxolup-18-ene]",< 199
21,"CC(C)C1=C2C3CCC4[C@@]5(C)CC[C@H](OC(=O)CC(C)(C)C(=O)O)C(C)(C)C5CC[C@@]4(C)[C@]3(C)CC[C@@]2(NC(=O)NC2(c3ccccn3)CC2)CC1=O (stereo partly drawn) [17-69, 3β-O-(3′,3′-Dimethylsuccinyl)-17β-[N′-(1-pyridin-2-yl-cyclopropyl)-ureido]-21-oxolup-18-ene]",< 199
22,"CC(C)C1=C2C3CCC4[C@@]5(C)CC[C@H](OC(=O)CC(C)(C)C(=O)O)C(C)(C)C5CC[C@@]4(C)[C@]3(C)CC[C@@]2(NC(=O)c2nnc(C3CC3)o2)CC1=O (stereo partly drawn) [19-62, 3β-O-(3′,3′-Dimethylsuccinyl)-17β-(5-cyclopropyl-[1,3,4]oxadiazole-2-amido)-21-oxolup-18-ene]",< 199
23,"CC(C)C1=C2C3CCC4[C@@]5(C)CC[C@H](OC(=O)CC(C)(C)C(=O)O)C(C)(C)C5CC[C@@]4(C)[C@]3(C)CC[C@@]2(NC(=O)NCC2CC2)CC1=O (stereo partly drawn) [17-21, 3β-O-(3′,3′-Dimethylsuccinyl)-17β-(N′-cyclopropylmethyl-ureido)-21-oxolup-18-ene]",200 to 999
24,CC(C)C1=C2[C@H]3CC[C@@H]4[C@@]5(C)CC[C@H](OC(=O)CC(C)(C)C(=O)O)C(C)(C)[C@@H]5CC[C@@]4(C)[C@]3(C)CC[C@@]2(NC(=O)[C@@H]2CCCN2C)CC1=O [19-42],< 199
25,"CC(C)C1=C2C3CCC4[C@@]5(C)CC[C@H](OC(=O)CC(C)(C)C(=O)O)C(C)(C)C5CC[C@@]4(C)[C@]3(C)CC[C@@]2(NC(=O)NC(C)(C)C2CCCCC2)CC1=O (stereo partly drawn) [17-70, 3β-O-(3′,3′-Dimethylsuccinyl)-17β-[N′-(1-methyl-1-cyclohexyl-ethyl)-ureido]-21-oxolup-18-ene]",> 1000
26,"CC(C)C1=C2[C@H]3CC[C@@H]4[C@@]5(C)CC[C@H](OC(=O)CC(C)(C)C(=O)O)C(C)(C)[C@@H]5CC[C@@]4(C)[C@]3(C)CC[C@@]2(NC(=O)c2cnccc2O)CC1=O [19-50, 3β-O-(3′,3′-Dimethylsuccinyl)-17β-(4-hydroxypyridine-3-yl)amido-21-oxolup-18-ene]",< 199
27,"CC(C)C1=C2[C@H]3CC[C@@H]4[C@@]5(C)CC[C@H](OC(=O)CC(C)(C)C(=O)O)C(C)(C)C5CC[C@@]4(C)[C@]3(C)CC[C@@]2(NC(=O)NC[C@@H]2CCCN2)CC1=O (stereo partly drawn) [17-38, 3β-O-(3′,3′-Dimethylsuccinyl)-17β-(3-(S)-1-pyrrolidin-2-ylmethyl-ureido)-21-oxolup-18-ene]",< 199

# Same assay, conditions: Human immunodeficiency virus 1, MT2 cells, without human serum, average IC50 if tested more than once, read-out: MT2 (HIVIIIB) IC50 range
row,Compound,IC50 [nM]
1,"CC(C)C1=C2[C@H]3CC[C@@H]4[C@@]5(C)CC[C@H](OC(=O)CC(C)(C)C(=O)O)C(C)(C)[C@@H]5CC[C@@]4(C)[C@]3(C)CC[C@@]2(NC(=O)c2ccccc2F)CC1=O [19-11, 3β-O-(3′,3′-Dimethylsuccinyl)-17β-(2-fluorobenzamido)-21-oxolup-18-ene]",< 199
2,"CC(C)C1=C2[C@H]3CC[C@@H]4[C@@]5(C)CC[C@H](OC(=O)CC(C)(C)C(=O)O)C(C)(C)[C@@H]5CC[C@@]4(C)[C@]3(C)CC[C@@]2(NC(=O)OC(C)(C)C)CC1=O [14-1, 3β-O-(3′,3′-Dimethylsuccinyl)-17β-tert-butyloxycarbonylamino-21-oxolup-18-ene]",< 199
3,"CC(C)C1=C2[C@H]3CC[C@@H]4[C@@]5(C)CC[C@H](OC(=O)CC(C)(C)C(=O)O)C(C)(C)[C@@H]5CC[C@@]4(C)[C@]3(C)CC[C@@]2(NC(=O)Cc2ccc(F)cc2)CC1=O [19-9, 3β-O-(3′,3′-Dimethylsuccinyl)-17β-(4-fluorobenzyl)amido-21-oxolup-18-ene]",< 199
4,"CC(C)C1=C2[C@H]3CC[C@@H]4[C@@]5(C)CC[C@H](OC(=O)[C@H]6CCC[C@@H](C(=O)O)C6)C(C)(C)[C@@H]5CC[C@@]4(C)[C@]3(C)CC[C@@]2(NC(=O)OC(C)(C)C)CC1=O [14-2, 3β-O-(cis-Cyclohexane-3′-carboxylic acid-1′-carboxyl)-17β-[N-tert-butyloxycarbonyl-amino]-21-oxolup-18-ene]",> 1000
5,"CC(C)C1=C2[C@H]3CC[C@@H]4[C@@]5(C)CC[C@H](OC(=O)CC(C)(C)C(=O)O)C(C)(C)[C@@H]5CC[C@@]4(C)[C@]3(C)CC[C@@]2(NS(C)(=O)=O)CC1=O [18-1, 3β-O-(3′,3′-Dimethylsuccinyl)-17β-methylsulfonylamino-21-oxolup-18-ene]",< 199
6,"CC(C)C1=C2C3CCC4[C@@]5(C)CC[C@H](OC(=O)CC(C)(C)C(=O)O)C(C)(C)C5CC[C@@]4(C)[C@]3(C)CC[C@@]2(NC(=O)OCC2CCCCC2)CC1=O (stereo partly drawn) [20-7, 3β-O-(3′,3′-Dimethylsuccinyl)-17β-cyclohexylmethoxycarbonylamino-21-oxolup-18-ene]",< 199

# Reference: US8269026B2, “Lupane derivatives useful for treating HIV” (priority 2008, dated 2012)
